Here are results for 17 molecules from patent US11440899B2, “Pyrimidine TBK/IKKe inhibitor compounds and uses thereof” (Merck Patent GmbH, priority 2017, dated 2022).

SMILES strings stand for the structures.

The target of test [1] is TBK1 (Homo sapiens (Human), UniProt Q9UHD2). The experiment in a line: TBK Biochemical Assay. An outline of the steps:
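Enzyme and substrate with compound (10-point 1:4 series, top 30 uM final, 1% DMSO) incubated 90 min at 25 °C, then stopped; substrate/product separated and read by LabChip mobility-shift, staurosporine 10 uM final as full-inhibition control.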

Test [2] has as its target IKKe (Homo sapiens (Human), UniProt Q14164). The experiment in a line: IKKe Biochemical Assay. An outline of the steps:
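Human IKKε activity was measured with compounds in a 10-point 1:4 dilution series, top concentration 30 uM final, in 1% DMSO final; 10 uM staurosporine served as the control. Enzyme and substrate were incubated 90 min at 25° C, then stopped, and substrate/product peaks were separated by microfluidic mobility-shift on a LabChip EZ Reader II.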

Chain of TBK1 (Q9UHD2 whole entry, species assumed): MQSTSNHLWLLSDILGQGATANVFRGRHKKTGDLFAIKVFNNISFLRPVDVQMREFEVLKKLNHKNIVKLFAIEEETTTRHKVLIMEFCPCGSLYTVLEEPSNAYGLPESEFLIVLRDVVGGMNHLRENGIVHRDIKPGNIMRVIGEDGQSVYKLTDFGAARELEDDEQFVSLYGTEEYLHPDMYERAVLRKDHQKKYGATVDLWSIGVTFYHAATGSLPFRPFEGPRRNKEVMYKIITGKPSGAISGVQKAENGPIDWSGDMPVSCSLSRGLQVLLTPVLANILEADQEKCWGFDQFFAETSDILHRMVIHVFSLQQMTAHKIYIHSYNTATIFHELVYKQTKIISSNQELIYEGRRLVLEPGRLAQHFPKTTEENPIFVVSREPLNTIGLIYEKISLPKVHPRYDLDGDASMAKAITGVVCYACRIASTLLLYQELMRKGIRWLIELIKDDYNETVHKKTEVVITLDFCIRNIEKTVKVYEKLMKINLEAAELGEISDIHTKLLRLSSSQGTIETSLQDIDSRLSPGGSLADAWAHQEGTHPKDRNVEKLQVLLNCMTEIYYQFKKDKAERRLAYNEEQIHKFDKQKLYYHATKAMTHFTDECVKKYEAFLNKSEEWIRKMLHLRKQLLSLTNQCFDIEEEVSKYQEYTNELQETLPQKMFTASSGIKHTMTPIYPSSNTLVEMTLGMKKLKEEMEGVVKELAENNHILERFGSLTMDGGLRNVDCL
Chain of IKKe (Q14164 whole entry, species assumed): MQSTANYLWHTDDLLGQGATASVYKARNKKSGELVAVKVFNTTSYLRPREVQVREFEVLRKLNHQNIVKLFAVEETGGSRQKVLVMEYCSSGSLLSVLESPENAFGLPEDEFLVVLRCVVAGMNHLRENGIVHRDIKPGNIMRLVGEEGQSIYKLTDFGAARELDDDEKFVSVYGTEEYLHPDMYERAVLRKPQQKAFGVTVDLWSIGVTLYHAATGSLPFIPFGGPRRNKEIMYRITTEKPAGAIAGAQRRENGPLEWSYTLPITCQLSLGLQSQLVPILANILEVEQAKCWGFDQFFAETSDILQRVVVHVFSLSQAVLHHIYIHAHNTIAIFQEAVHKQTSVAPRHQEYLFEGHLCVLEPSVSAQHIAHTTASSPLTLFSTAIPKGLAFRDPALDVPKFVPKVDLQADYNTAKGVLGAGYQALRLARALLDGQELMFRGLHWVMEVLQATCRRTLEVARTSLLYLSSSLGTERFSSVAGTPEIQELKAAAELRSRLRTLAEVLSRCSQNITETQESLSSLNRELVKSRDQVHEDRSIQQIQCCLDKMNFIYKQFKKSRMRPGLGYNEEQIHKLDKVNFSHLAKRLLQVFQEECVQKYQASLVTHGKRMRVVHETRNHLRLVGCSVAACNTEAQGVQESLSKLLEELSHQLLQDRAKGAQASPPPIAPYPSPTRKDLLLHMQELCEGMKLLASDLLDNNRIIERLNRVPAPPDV

`COc1nc(Nc2cc(-c3ccc(OC4CCNCC4(F)F)c(C#N)c3)ncn2)ccc1N1CCN(C)[C@@H](C)C1` (stereo partly drawn) [Example 80, 2-[(3,3-difluoropiperidin-4-yl)oxy]-5-[6-({5-[(3S)-3,4-dimethylpiperazin-1-yl]-6-methoxypyridin-2-yl}amino)pyrimidin-4-yl]benzonitrile]: the IC50 in test [1] and in test [2] was under 100 nM each time.
Regarding `COc1nc(Nc2cc(-c3ccc(OC4CCN(C(=O)[C@@H](C)O)CC4(F)F)c(C#N)c3)ncn2)ccc1N1CCN(C)[C@@H](C)C1` (stereo partly drawn) [Example 81, 2-([3,3-difluoro-1-[(2R)-2-hydroxypropanoyl]piperidin-4-yl]oxy)-5-[6-([5-[(3S)-3,4-dimethylpiperazin-1-yl]-6-methoxypyridin-2-yl]amino)pyrimidin-4-yl]benzonitrile], the IC50 in test [1] and in test [2] was under 100 nM in each case.
Consider `COc1nc(Nc2cc(-c3ccc(OC4CCN(C(=O)[C@H](C)O)CC4(F)F)c(C#N)c3)ncn2)ccc1N1CCN(C)[C@@H](C)C1` (stereo partly drawn) [Example 82, 2-([3,3-difluoro-1-[(2S)-2-hydroxypropanoyl]piperidin-4-yl]oxy)-5-[6-([5-[(3S)-3,4-dimethylpiperazin-1-yl]-6-methoxypyridin-2-yl]amino)pyrimidin-4-yl]benzonitrile], for which the IC50 in test [1] and in test [2] was under 100 nM throughout.
`COc1nc(Nc2cc(-c3ccc(OC4CCNCC4(F)F)c(C#N)c3)ncn2)ccc1C1CCN(C2COC2)CC1` (stereo not shown) [Example 83]: the IC50 in test [1] and in test [2] was under 100 nM in each case.
As to `COc1nc(Nc2cc(-c3ccc(OC4CCN(C(=O)[C@H](C)O)CC4(F)F)c(C#N)c3)ncn2)ccc1C1CCN(C2COC2)CC1` (stereo partly drawn) [Example 84, 2-([3,3-difluoro-1-[(2S)-2-hydroxypropanoyl]piperidin-4-yl]oxy)-5-[6-([6-methoxy-5-[1-(oxetan-3-yl)piperidin-4-yl]pyridin-2-yl]amino)pyrimidin-4-yl]benzonitrile], the IC50 in test [1] and in test [2] was under 100 nM throughout.
Take `C[C@H](O)C(=O)N1CCC(Oc2ccc(-c3cc(Nc4ccc(N5CCN(C6COC6)CC5)cc4)ncn3)cc2C#N)C(F)(F)C1` (stereo partly drawn) [Example 85, 2-([3,3-difluoro-1-[(2S)-2-hydroxypropanoyl]piperidin-4-yl]oxy)-5-[6-([4-[4-(oxetan-3-yl)piperazin-1-yl]phenyl]amino)pyrimidin-4-yl]benzonitrile]: the IC50 in test [1] and in test [2] was under 100 nM throughout.
With `C[C@@H](O)C(=O)N1CCC(Oc2ccc(-c3cc(Nc4ccc(N5CCN(C6COC6)CC5)cc4)ncn3)cc2C#N)C(F)(F)C1` (stereo partly drawn) [Example 86, 2-([3,3-difluoro-1-[(2R)-2-hydroxypropanoyl]piperidin-4-yl]oxy)-5-[6-([4-[4-(oxetan-3-yl)piperazin-1-yl]phenyl]amino)pyrimidin-4-yl]benzonitrile], the IC50 was under 100 nM in test [1] and 100 to 1000 nM in test [2].
On to `COc1nc(Nc2cc(-c3ccc(NC4CCOCC4)c(C#N)c3)ncn2)ccc1C(=O)N(C)C` [Example 87, 6-[(6-[3-cyano-4-[(oxan-4-yl)amino]phenyl]pyrimidin-4-yl)amino]-2-methoxy-N,N-dimethylpyridine-3-carboxamide], for which the IC50 was under 100 nM in test [1] and 100 to 1000 nM in test [2].
For the molecule `COc1nc(Nc2cc(-c3ccc(OC4CCOCC4)c(C#N)c3)ncn2)ccc1C(=O)NCCO` [Example 88, 6-([6-[3-cyano-4-(oxan-4-yloxy)phenyl]pyrimidin-4-yl]amino)-N-(2-hydroxyethyl)-2-methoxypyridine-3-carboxamide], the IC50 in test [1] and in test [2] was under 100 nM each time.
With `COc1nc(Nc2cc(-c3ccc(OC4CCOCC4)c(C#N)c3)ncn2)ccc1C(=O)NC1CN2CCC1CC2` (stereo not shown) [Example 89, 6-((6-(3-cyano-4-((tetrahydro-2H-pyran-4-yl)oxy)phenyl)pyrimidin-4-yl)amino)-2-methoxy-N-(quinuclidin-3-yl)nicotinamide], the IC50 in test [1] and in test [2] was under 100 nM throughout.
Turning to `COc1nc(Nc2cc(-c3ccc(OC4CCOCC4)c(C#N)c3)ncn2)ccc1C(=O)N1C2CCCC1COC2` [Example 90, 5-(6-[[6-methoxy-5-([3-oxa-9-azabicyclo[3.3.1]nonan-9-yl]carbonyl)pyridin-2-yl]amino]pyrimidin-4-yl)-2-(oxan-4-yloxy)benzonitrile], the IC50 in test [1] and in test [2] was under 100 nM throughout.
For the molecule `COc1nc(Nc2cc(-c3ccc(O[C@H]4CCN(C(=O)[C@H](C)O)CC4(F)F)c(C#N)c3)ncn2)ccc1N1CCN(C2COC2)CC1` [Example 91, 2-[[(4S)-3,3-difluoro-1-[(2S)-2-hydroxypropanoyl]piperidin-4-yl]oxy]-5-[6-([6-methoxy-5-[4-(oxetan-3-yl)piperazin-1-yl]pyridin-2-yl]amino)pyrimidin-4-yl]benzonitrile], the IC50 in test [1] and in test [2] was under 100 nM in each case.
With `COc1nc(Nc2cc(-c3ccc(O[C@@H]4CCN(C(=O)[C@H](C)O)CC4(F)F)c(C#N)c3)ncn2)ccc1N1CCN(C2COC2)CC1` [Example 92, 2-[[(4R)-3,3-difluoro-1-[(2S)-2-hydroxypropanoyl]piperidin-4-yl]oxy]-5-[6-([6-methoxy-5-[4-(oxetan-3-yl)piperazin-1-yl]pyridin-2-yl]amino)pyrimidin-4-yl]benzonitrile], the IC50 in test [1] and in test [2] was under 100 nM throughout.
In the case of `COc1nc(Nc2cc(-c3ccc(O[C@H]4CCN(C(=O)[C@H](C)O)CC4(F)F)c(C#N)c3)ncn2)ccc1C1CCN(C2COC2)CC1` [Example 93, 2-[[(4S)-3,3-difluoro-1-[(2S)-2-hydroxypropanoyl]piperidin-4-yl]oxy]-5-[6-([6-methoxy-5-[1-(oxetan-3-yl)piperidin-4-yl]pyridin-2-yl]amino)pyrimidin-4-yl]benzonitrile], the concentration for half-maximal inhibition (IC50) in test [1] and in test [2] was under 100 nM in each case.
For the molecule `COc1nc(Nc2cc(-c3ccc(O[C@@H]4CCN(C(=O)[C@H](C)O)CC4(F)F)c(C#N)c3)ncn2)ccc1C1CCN(C2COC2)CC1` [Example 94, 2-[[(4R)-3,3-difluoro-1-[(2S)-2-hydroxypropanoyl]piperidin-4-yl]oxy]-5-[6-([6-methoxy-5-[1-(oxetan-3-yl)piperidin-4-yl]pyridin-2-yl]amino)pyrimidin-4-yl]benzonitrile], the IC50 in test [1] and in test [2] was under 100 nM in each case.
`COc1nc(Nc2cc(-c3ccc(O[C@H]4CCN(C(=O)[C@@H](C)O)CC4(F)F)c(C#N)c3)ncn2)ccc1N1CCN(C2COC2)CC1` [Example 95, 2-[[(4S)-3,3-difluoro-1-[(2R)-2-hydroxypropanoyl]piperidin-4-yl]oxy]-5-[6-([6-methoxy-5-[4-(oxetan-3-yl)piperazin-1-yl]pyridin-2-yl]amino)pyrimidin-4-yl]benzonitrile]: the IC50 in test [1] and in test [2] was under 100 nM throughout.
Consider `COc1nc(Nc2cc(-c3ccc(OC4CCN(C(=O)[C@@H](C)O)CC4(F)F)c(C#N)c3)ncn2)ccc1C1CCN(C2COC2)CC1` (stereo partly drawn) [Example 97, 2-([3,3-difluoro-1-[(2R)-2-hydroxypropanoyl]piperidin-4-yl]oxy)-5-[6-([6-methoxy-5-[1-(oxetan-3-yl)piperidin-4-yl]pyridin-2-yl]amino)pyrimidin-4-yl]benzonitrile], for which the IC50 in test [1] and in test [2] was under 100 nM in each case.
